Like-named read-outs stand apart in the source and are kept apart here.

One assay addresses T1, human A2A receptors (Homo sapiens, UniProt P29274).
T1 construct: expressed in transfected cells; host or cells: HEK293
The assay is described as follows: Functional human A2A receptor activity, recombinant HEK293 cells, cAMP (HTRF). The class given is cell-based. The following applies: read-out: A2A (Category). A digest of the protocol:
(§1)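 Read-out is cellular cAMP measured by HTRF, added once a 15 min incubation had ended. cAMP reflects adenosine receptor signalling as the second messenger.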

The target in another assay is T2, human A2B receptors (Homo sapiens, UniProt P29275).
T2 construct: expressed in transfected cells; host or cells: HEK293
T2 sequence (P29275 1-332): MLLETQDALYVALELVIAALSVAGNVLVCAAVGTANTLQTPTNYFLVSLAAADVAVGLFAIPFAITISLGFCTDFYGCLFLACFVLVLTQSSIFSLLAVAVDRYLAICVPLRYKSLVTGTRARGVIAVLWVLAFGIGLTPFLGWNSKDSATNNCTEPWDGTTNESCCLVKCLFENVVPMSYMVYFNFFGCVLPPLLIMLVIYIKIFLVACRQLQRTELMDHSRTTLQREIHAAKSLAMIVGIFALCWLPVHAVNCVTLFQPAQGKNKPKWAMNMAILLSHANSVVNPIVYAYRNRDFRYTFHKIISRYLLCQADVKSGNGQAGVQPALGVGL
As to the kind of experiment: Functional human A2B receptor activity, recombinant HEK293 cells, cAMP (HTRF). The format is cell-based. The following applies: read-out: A2B (Category). The procedure, abridged:
as §1

T1 sequence (P29274 whole entry): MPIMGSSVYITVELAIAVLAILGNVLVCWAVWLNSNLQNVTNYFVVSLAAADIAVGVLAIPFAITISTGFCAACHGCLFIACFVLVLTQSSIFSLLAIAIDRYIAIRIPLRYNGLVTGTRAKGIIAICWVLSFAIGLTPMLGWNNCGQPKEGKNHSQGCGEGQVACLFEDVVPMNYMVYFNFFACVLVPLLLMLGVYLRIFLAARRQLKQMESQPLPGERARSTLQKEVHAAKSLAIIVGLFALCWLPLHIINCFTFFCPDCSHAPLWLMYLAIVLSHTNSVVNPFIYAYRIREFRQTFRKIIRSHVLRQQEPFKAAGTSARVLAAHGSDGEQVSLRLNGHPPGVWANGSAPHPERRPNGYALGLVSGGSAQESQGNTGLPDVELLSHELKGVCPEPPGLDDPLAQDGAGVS

As to `[2H]C1([2H])COCCN(C(=O)c2cc3c(cn2)c(-c2coc4ccc(F)cc24)nn3CC(F)(F)F)C1` [Compound 120, [3-(5-fluorobenzofuran-3-yl)-1-(2,2,2-trifluoroethyl)pyrazolo[4,3-c]pyridin-6-yl]-(6,6-dideuterio-1,4-oxazepan-4-yl)methanone], the IC50 at human A2A receptors and on human A2B receptors was below 100 nM each time.

On to `O=C(c1cc2c(cn1)c(-c1cnc3ccc(O)cn13)nn2CC(F)(F)F)N1[C@@H]2CC[C@H]1C[C@@H](O)C2` [Compound 88, (3-endo-hydroxy-8-azabicyclo[3.2.1]octan-8-yl)-[3-(6-hydroxyimidazo[1,2-a]pyridin-3-yl)-1-(2,2,2-trifluoroethyl)pyrazolo[4,3-c]pyridin-6-yl]methanone], for which the IC50 at human A2A receptors was below 100 nM; at human A2B receptors it was below 1000 nM.

`CC(C)(C)OC(=O)N1CC2CC1CN2C(=O)c1cc2c(cn1)c(-c1cnc3c(F)cc(F)cn13)nn2CC(F)(F)F` (stereo not drawn) [Compound 194, 5-[3-(6,8-Difluoro-imidazo[1,2-a]pyridin-3-yl)-1-(2,2,2-trifluoro-ethyl)-1H-pyrazolo[4,3-c]pyridine-6-carbonyl]-2,5-diaza-bicyclo[2.2.1]heptane-2-carboxylic Acid Tert-Butyl Ester]: the IC50 at human A2A receptors and on human A2B receptors was below 100 nM each time.

As to `O=C(c1cc2c(cn1)c(-c1cnc3c(F)cc(F)cn13)nn2CC(F)(F)F)N1CCCC(F)(F)C1` [Compound 159, [3-(6,8-Difluoro-imidazo[1,2-a]pyridin-3-yl)-1-(2,2,2-trifluoro-ethyl)-1H-pyrazolo[4,3-c]pyridin-6-yl]-(3,3-difluoro-piperidin-1-yl)-methanone], the IC50 is below 100 nM at human A2A receptors and below 1000 nM on human A2B receptors.

For the compound `O=C(c1cc2c(cn1)c(-c1cnc3c(F)cc(F)cn13)nn2CC(F)(F)F)N1CC2COCC2C1` (stereo not drawn) [Compound 154, [3-(6,8-Difluoro-imidazo[1,2-a]pyridin-3-yl)-1-(2,2,2-trifluoro-ethyl)-1H-pyrazolo[4,3-c]pyridin-6-yl]-(tetrahydro-furo[3,4-c]pyrrol-5-yl)-methanone], the IC50 at human A2A receptors (recombinant HEK293 cells expressing human A2A receptor, agonist NECA, cAMP HTRF, 15 min incubation) was below 100 nM; at human A2B receptors (recombinant HEK293 cells expressing human A2B receptor, agonist NECA, cAMP HTRF, 15 min incubation) it was below 1000 nM.

For the compound `O=C(c1cc2c(cn1)c(-c1cnc3ccc(F)cn13)nn2CC(F)(F)F)N1CC2CCC(C1)O2` [Compound 82, [3-(6-Fluoro-imidazo[1,2-a]pyridin-3-yl)-1-(2,2,2-trifluoro-ethyl)-1H-pyrazolo[4,3-c]pyridin-6-yl]-(8-oxa-3-aza-bicyclo[3.2.1]oct-3-yl)-methanone], the IC50 at human A2A receptors is below 100 nM; at human A2B receptors it was below 1000 nM.

Take `CC1(C)CC(O)CCN1C(=O)c1cc2c(cn1)c(-c1cnc3c(F)cc(F)cn13)nn2CC(F)(F)F` (stereo not drawn) [Compound 142, [3-(6,8-Difluoro-imidazo[1,2-a]pyridin-3-yl)-1-(2,2,2-trifluoro-ethyl)-1H-pyrazolo[4,3-c]pyridin-6-yl]-(4-hydroxy-2,2-dimethyl-piperidin-1-yl)-methanone]: the IC50 on human A2A receptors is below 100 nM; at human A2B receptors, below 1000 nM.

Turning to `O=C(c1cc2c(cn1)c(-c1cnc3c(F)cc(F)cn13)nn2CC1CC1)N1CCCOCC1` [Compound 9, [1-Cyclopropylmethyl-3-(6,8-difluoro-imidazo[1,2-a]pyridin-3-yl)-1H-pyrazolo[4,3-c]pyridin-6-yl]-1,4-oxazepan-4-yl-methanone], the IC50 was below 100 nM on human A2A receptors and below 1000 nM at human A2B receptors.

Turning to `NC(=O)c1ccc2ncc(-c3nn(CC(F)(F)F)c4cc(C(=O)N5CCCOCC5)ncc34)n2c1` [Compound 246, 3-[6-(1,4-Oxazepane-4-carbonyl)-1-(2,2,2-trifluoro-ethyl)-1H-pyrazolo[4,3-c]pyridin-3-yl]-imidazo[1,2-a]pyridine-6-carboxylic acid amide], the figures for the IC50 at human A2A receptors and on human A2B receptors were below 100 nM and below 1000 nM, respectively.

In the case of `CN(CCNC(=O)OC(C)(C)C)C(=O)c1cc2c(cn1)c(-c1cnc3c(F)cc(F)cn13)nn2CC(F)(F)F` [Compound 197, (2-{[3-(6,8-Difluoro-imidazo[1,2-a]pyridin-3-yl)-1-(2,2,2-trifluoro-ethyl)-1H-pyrazolo[4,3-c]pyridine-6-carbonyl]-methyl-amino}-ethyl)-carbamic Acid Tert-Butyl Ester], the IC50 was below 100 nM at human A2A receptors and below 1000 nM on human A2B receptors.

Take `Cc1cc(C(N)=O)cn2c(-c3nn(CC(F)(F)F)c4cc(C(=O)N5CCCCCC5)ncc34)cnc12` [Compound 244, 3-[6-(Azepane-1-carbonyl)-1-(2,2,2-trifluoro-ethyl)-1H-pyrazolo[4,3-c]pyridin-3-yl]-8-methyl-imidazo[1,2-a]pyridine-6-carboxylic acid amide]: the IC50 on human A2A receptors was below 100 nM; on human A2B receptors, below 1000 nM.

With `O=C(c1cc2c(cn1)c(-c1cnn3ccccc13)nn2CC(F)(F)F)N1[C@@H]2CC[C@H]1C[C@@H](O)C2` [Compound 113, (3-endo-hydroxy-8-azabicyclo[3.2.1]octan-8-yl)-[3-pyrazolo[1,5-a]pyridin-3-yl-1-(2,2,2-trifluoroethyl)pyrazolo[4,3-c]pyridin-6-yl]methanone], the IC50 on human A2A receptors and at human A2B receptors was below 100 nM throughout.

For the compound `O=C(c1cc2c(cn1)c(-c1coc3ccccc13)nn2CC(F)(F)F)N(C1CC1)C1CC1` [Compound 232, 3-(benzofuran-3-yl)-N,N-di(cyclopropyl)-1-(2,2,2-trifluoroethyl)-pyrazolo[4,3-c]pyridine-6-carboxamide], the IC50 on human A2A receptors was below 100 nM; on human A2B receptors, below 1000 nM.

In the case of `Cc1ccc2occ(-c3nn(CC(F)(F)F)c4cc(C(=O)N5CCCOCC5)ncc34)c2c1` [Compound 125, [3-(5-methylbenzofuran-3-yl)-1-(2,2,2-trifluoroethyl)pyrazolo[4,3-c]pyridin-6-yl]-(1,4-oxazepan-4-yl)methanone], the IC50 is below 100 nM at human A2A receptors and below 1000 nM on human A2B receptors.

On to `O=C(c1cc2c(cn1)c(-c1coc3ccccc13)nn2CC(F)(F)F)N1CCCC(O)CC1` (stereo not drawn) [Compound 228, [3-(benzofuran-3-yl)-1-(2,2,2-trifluoroethyl)pyrazolo[4,3-c]pyridin-6-yl]-(4-hydroxyazepan-1-yl)methanone], for which the IC50 on human A2A receptors and on human A2B receptors was below 100 nM each time.

Consider `O=C(c1cc2c(cn1)c(-c1cnc3c(F)cc(F)cn13)nn2CC(F)(F)F)N1CCOC2(CCC2)C1` [Compound 192, [3-(6,8-Difluoro-imidazo[1,2-a]pyridin-3-yl)-1-(2,2,2-trifluoro-ethyl)-1H-pyrazolo[4,3-c]pyridin-6-yl]-(5-oxa-8-aza-spiro[3.5]non-8-yl)-methanone], for which the IC50 is below 100 nM at human A2A receptors and below 1000 nM at human A2B receptors.

For `O=C(c1cc2c(cn1)c(-c1cnc3c(F)cc(F)cn13)nn2CC(F)(F)F)N1[C@@H]2CC[C@H]1C[C@@H](O)C2` [Compound 168, [3-(6,8-Difluoro-imidazo[1,2-a]pyridin-3-yl)-1-(2,2,2-trifluoro-ethyl)-1H-pyrazolo[4,3-c]pyridin-6-yl]-(3-endo-hydroxy-8-aza-bicyclo[3.2.1]oct-8-yl)-methanone], the IC50 on human A2A receptors and on human A2B receptors was below 100 nM in each case.

Consider `O=C(c1cc2c(cn1)c(-c1c[nH]c3ccccc13)nn2CC(F)(F)F)N1CCCCCC1` [Compound 91, Azepan-1-yl-[3-(1H-indol-3-yl)-1-(2,2,2-trifluoro-ethyl)-1H-pyrazolo[4,3-c]pyridin-6-yl]-methanone], for which the IC50 at human A2A receptors and at human A2B receptors was below 100 nM throughout.

For the origin of these results see patent US20210380606A1, “5-AZAINDAZOLE DERIVATIVES AS ADENOSINE RECEPTOR ANTAGONISTS” (Merck Patent GmbH, priority 2018, published 2021).
